Experimental data: patent publication US9433659B2, “Enhanced glycemic control using Ad36E4orf1 and AKT1 inhibitor” (priority 2012, dated 2016)

B1: E4orf1: Adenovirus-36 E4orf1 protein, SEQ ID NO:2; expressed in 3T3-L1 cells by doxycycline induction or plasmid (protein, listed as Human adenovirus)
chain: MAESLYAFIDSPGGIAPVQEGASNRYIFFCPESFHIPPHGVILLHLRVSVLVPTGYQGRFMALNDYHARGILTQSDVIFAGRRHDLSVLLFNHTDRFLYVREGHPVGTLLLERVIFPSVRIATLV

What was measured:
Type in all cases: cell-based
[1] = system: 3T3-L1 adipocytes; test: Glucose uptake in 3T3-L1 adipocytes exposed to ATD; details: null vector, 10 μM TZD; increasing concentration of ATD (0, 1 or 5 μM)
Experimental: (§1) 3T3-L1 adipocytes were transfected with a null vector and exposed to 10 μM TZD, or transfected with a plasmid expressing E4orf1 protein. Both groups were exposed to 0, 1 or 5 μM ATD. […] The glucose uptake in adipocytes was PPARγ-dependent in the presence of TZD, but not when induced by E4orf1. Thus, by down-regulating AKT-1 signaling E4orf1 can be used to enhance glucose uptake by adipocytes, without further increasing lipid accumulation.

[2] = system: 3T3-L1 cells; test: Adipogenic differentiation by oil red O staining in inducible E4orf1 stable cell line; details: 3T3-L1 cells expressing Ad36 E4orf1 on doxycycline; 0, 1, or 5 M of 2ATD; up to nine days
Experimental: FIG. 7A-F are photomicrographs of 3T3-L1 cells. […] FIGS. 7D-F show 3T3-L1 cells that express Ad36 E4orf1 when exposed to doxycycline, treated with 0, 1, or 5 M, respectively, of 2ATD—a specific inhibitor of AKT1 signalling.
3T3-L1 cells that express Ad36 E4orf1 when exposed to doxycycline (10) were generated. […] Confluent E4orf1 and pTRE cells were exposed to adipogenic media to induce differentiation. In addition the cells were treated with 0, 1 or 5 M of 2ATD—a specific inhibitor of AKT1 signalling. This media was refreshed every two days for up to nine days. Adipogenic differentiation was verified by oil red O staining (FIGS. 7A-F).

[3] = system: PPARγ; test: PPARγ expression by qRT-PCR in E4orf1 and pTRE cells
Experimental: (§2) Confluent E4orf1 and pTRE cells were exposed to adipogenic media to induce differentiation. In addition the cells were treated with 0 or 5 μM of 2ATD—a specific inhibitor of AKT1 signalling. This media was refreshed every two days for up to nine days. Basal and insulin stimulated 2DG uptake was determined 24 hours post induction in the presence of 1000 ng/ml of doxycycline expression of PPARγ and adiponectin—markers of adipogenesis, by qRT-PCR.

[4] = system: PPARγ; test: PPARγ protein abundance in 3T3-L1 adipocytes; details: 0, 1 or 5 μM ATD
Experimental: FIG. 10 is a graph showing ATD inhibits PPARγ protein abundance. 3T3-L1 adipocytes were transfected with a null vector (V5), and exposed to 10 μM TZD, or transfected with a plasmid expressing E4orf1 protein. Both groups were exposed to […] ATD.
as §1

[5] = system: adiponectin; test: Adiponectin expression by qRT-PCR in E4orf1 and pTRE cells
Experimental: as §2

[6] = system: E4orf1 and pTRE inducible stable cells; test: Basal and insulin stimulated glucose (2DG) uptake in presence of 2-ATD
Experimental: E4orf1 and pTRE inducible stable cells were exposed to adipogenic media to induce differentiation and treated with 0 or 5 μM of 2-ATD. Basal and insulin stimulated 2DG was determined 24 hours after exposure to doxycycline (1000 ng/ml), in presence or absence of insulin (*p<0.05).

[7] = E4orf1 expressing cells, 0 or 5 μM of 2ATD
[8] = effect of E4orf1 expression (doxycycline 1000 ng/ml), qRT-PCR

Molecule	glucose uptake [1]	adipogenesis and lipid accumulation (oil red O staining) [2]	PPARγ expression [3, 7]	PPARγ expression ([3]; pTRE cells, 0 or 5 μM of 2ATD)	PPARγ protein abundance [4]	adiponectin expression [5, 7]	PPARγ expression [3, 8]	adiponectin expression [5, 8]	glucose uptake (2DG) despite 2-ATD treatment ([6]; E4orf1 expressing cells treated with 5 μM of 2-ATD)	glucose uptake (2DG) ([6]; E4orf1 expression compared to pTRE, 24 hours after doxycycline (1000 ng/ml), basal and insulin stimulated)
Nc1nncs1 [2-ATD, 2-Aminothiadiazole]	significantly reduced glucose uptake	blocked adipogenesis and lipid accumulation	significantly reduced PPARγ expression	significantly reduced PPARγ expression	reduced PPARγ protein abundance	significantly reduced	–	–	–	–
B1	–	–	–	–	–	–	significantly increased the expression of PPARγ and adiponectin	significantly increased the expression of PPARγ and adiponectin	continued to show significantly greater glucose uptake	increased glucose uptake compared to that in pTRE
